The values below come from US4232014A, “Aminoalkylindans and use as hypotensive agents” (Marion Laboratories, Inc., priority 1979, dated 1980).

One series deals with animals. Put plainly: Anti-hypertensive effect when administered to animals parenterally or orally. The class given is in vivo. To be noted: in words.
The subject of a further series is Mice. Nature of the series: Acute toxicity determination in mice (ALD50, ip). The class given is in vivo, female Swiss-Webster mice. The following applies: in words, compared with the other compounds of the series. The procedure:
(§1) Biological Methods--Acute toxicity determinations were performed in female Swiss-Webster mice, 15-24 g. Compounds were administered in aqueous solutions or as suspensions in 1% tragacanth by the intraperitoneal route to groups of three or more mice.

The nature of series [1]: Acute toxicity determination in mice (ALD50, ip). The class given is in vivo, female Swiss-Webster mice. The following applies: in vivo, mouse, ip, 24 hours after administration. Here is the method:
as §1

Series [2] deals with Desoxycorticosterone Hypertensive Rats. Nature of the series: Cardiovascular activity (blood pressure and heart rate) in desoxycorticosterone hypertensive rats. The class given is in vivo, male Charles River rats. The following applies: 24 hr. Here is the method:
The indirect measurements of blood pressure and heart rate were determined in male Charles River rats made hypertensive (systolic blood pressure >159 mm Hg) by subcutaneously implanting a wax-formulated pellet containing 10 mg of desoxycorticosterone acetate. Systolic blood pressure was measured in the caudal arteries of prewarmed (40° C.), unanesthetized, restrained animals by a pneumatic pulse transducer placed distal to an automated tail pressure cuff and was recorded on a physiograph. Heart rate was determined from the amplified pulse waves recorded during the blood pressure measurements. Prior to the actual experiments, animals were accustomed to the measurement handling procedure several times during the preceding weeks.
Control systolic blood pressure and heart rates were determined in a group of usually six hypertensive rats on each day. A compound for evaluation was administered by intraperitoneal injection either in solution or as a suspension at 24 hr. intervals following injection. Mean values of the group for these parameters at a particular measurement period were calculated, and then the mean difference from control, along with its associated standard error, was calculated for each period. The statistical significance of the changes produced by a compound was tested by an analysis of variance and the Newman-Keuls a posteriori test when F was significant. A probability level of 0.05 or less was accepted as a significant change.
All compounds synthesized in this series, except V, were tested at a dosage level of 100 mg/kg. […] Another group of hypertensive rats was injected with 0.9% NaCl in a dose of 1 ml/kg. The latter group was included as a placebo group for the entire study.

Series [3] has the same test system. Described as above. The class given is in vivo, male Charles River rats.
The mark [4] stands for this setting: 10 mg/kg ip, solution in distilled water, 1 hr.
Setting [5] is: 10 mg/kg ip, solution in distilled water, 2 hr.
Setting [6] is: 10 mg/kg ip, solution in distilled water, 4 hr.
[7] abbreviates: 10 mg/kg ip, solution in distilled water, 24 hr.
The mark [8] stands for this setting: 25 mg/kg ip, solution in distilled water, 4 hr.
[9] abbreviates: 100 mg/kg ip, suspension in 1% tragacanth.
[10] abbreviates: 100 mg/kg ip, suspension in 1% tragacanth, 1 hr.
[11] abbreviates: 100 mg/kg ip, suspension in 1% tragacanth, 2 hr.
Setting [12] is: 100 mg/kg ip, suspension in 1% tragacanth, 4 hr.
Setting [13] is: 50 mg/kg ip, suspension in 1% tragacanth, 1 hr.
Where [14] appears, read: 50 mg/kg ip, suspension in 1% tragacanth, 2 hr.
Where [15] appears, read: 50 mg/kg ip, suspension in 1% tragacanth, 4 hr.
Where [16] appears, read: 50 mg/kg ip, suspension in 1% tragacanth, 24 hr.

The structures appear in SMILES notation.

Consider `Cc1cc2c(cc1CCN)CCC2` [5-aminoethyl-6-methylindan], for which the hypotensive properties result with animals is given as “has hypotensive properties”. For the same molecule, the anti-hypertensive effect entry with animals (as base or acid addition salt, animals, parenterally or orally) is reported as “exert an anti-hypertensive effect”.

`Cc1cc2c(cc1CCN)CCC2.Cl` [Compound V, 5-Aminoethyl-6-methylindan HCl]: in the series on Mice, the “relative toxicity in the mouse” value is listed as “relatively more toxic in the mouse”. For the same molecule, the LD50 (commonly the dose expected to kill half of the subjects tested) at 24 h in series [1] (solution in distilled water) fell in the range of 79 to 89 mg/kg. Also, the “Mean change in heart rate from control ± SE” value is recorded as -26 ± 14 beats per minute in series [2] (25 mg/kg ip, solution in distilled water); “+32 ± 17 beats per minute” in series [3] (setting [4]); “+34 ± 14 beats per minute” in series [3] (setting [5]); “+25 ± 11 beats per minute” in series [3] (setting [6]); -4 ± 11 beats per minute in series [3] (setting [7]); “+20 ± 21 beats per minute” in series [3] (setting [8]). Further, the “Mean change in systolic blood pressure from control ± SE” value in series [3] (setting [4]) is given as -24 ± 8 mm Hg; in series [3] (setting [5]) it was -24 ± 4 mm Hg; in series [3] (setting [6]), -15 ± 5 mm Hg; in series [3] (setting [7]), -6 ± 4 mm Hg; in series [3] (setting [8]) it was -18 ± 4 mm Hg; in series [3] (25 mg/kg ip, solution in distilled water, 24 hr), -11 ± 2 mm Hg.

Consider `COc1cc2c(cc1CCNC(=O)c1ccccc1)CCC2` [I, 5-Benzoylaminoethyl-6-methoxyindan], for which, in series [1] (suspension in 1% tragacanth), the LD50 at 24 h was above 1000 mg/kg. Moreover, the “Mean change in heart rate from control ± SE” value is recorded as -67 ± 22 beats per minute in series [2] (setting [9]), -20 ± 23 beats per minute in series [3] (setting [10]), “+9 ± 30 beats per minute” in series [3] (setting [11]) and -14 ± 18 beats per minute in series [3] (setting [12]). The “Mean change in systolic blood pressure from control ± SE” value in series [2] (setting [9]) was -13 ± 4 mm Hg; in series [3] (setting [10]) it was -18 ± 8 mm Hg; in series [3] (setting [11]) it was -24 ± 7 mm Hg; in series [3] (setting [12]), -12 ± 6 mm Hg.

In series [1] (suspension in 1% tragacanth), `COc1cc2c(cc1CCNC(=O)c1cc(OC)c(OC)c(OC)c1)CCC2` [II, 5-(3,4,5-Trimethoxybenzoyl)aminoethyl-6-methoxyindan] showed an LD50 at 24 h above 1000 mg/kg. In addition, the “Mean change in heart rate from control ± SE” value in series [2] (setting [9]) was -4 ± 10 beats per minute; in series [3] (setting [10]), “+23 ± 28 beats per minute”; in series [3] (setting [11]) it was “+10 ± 28 beats per minute”; in series [3] (setting [12]), “+47 ± 29 beats per minute”. In addition, the “Mean change in systolic blood pressure from control ± SE” value in series [2] (setting [9]) was -16 ± 4 mm Hg; in series [3] (setting [10]), -27 ± 8 mm Hg; in series [3] (setting [11]) it was -35 ± 13 mm Hg; in series [3] (setting [12]), -12 ± 8 mm Hg.

In series [1] (suspension in 1% tragacanth), `COc1cc2c(cc1CCNC(=O)Cc1ccccc1)CCC2` [III, 5-Phenylacetylaminoethyl-6-methoxyindan] showed an LD50 at 24 h of 1000 to 1500 mg/kg. Further, the “Mean change in heart rate from control ± SE” value was “+61 ± 12 beats per minute” in series [2] (setting [9]), “+13 ± 12 beats per minute” in series [3] (setting [10]), “+54 ± 25 beats per minute” in series [3] (setting [11]) and “+19 ± 21 beats per minute” in series [3] (setting [12]). Besides, the “Mean change in systolic blood pressure from control ± SE” value in series [2] (setting [9]) is on record as -13 ± 4 mm Hg; in series [3] (setting [10]) it was -32 ± 7 mm Hg; in series [3] (setting [11]), -24 ± 5 mm Hg; in series [3] (setting [12]) it was -21 ± 4 mm Hg.

Consider `COc1cc2c(cc1CCNC(=O)Cc1ccc(OC)c(OC)c1)CCC2` [IV, 5-(3,4-Dimethoxyphenylacetyl)aminoethyl-6-methoxyindan], for which, in series [1] (suspension in 1% tragacanth), the 50% lethal dose (LD50) at 24 h lay in the range of 500 to 1000 mg/kg. Moreover, the “Mean change in heart rate from control ± SE” value in series [2] (setting [9]) is -27 ± 2 beats per minute; in series [3] (setting [10]), “+23 ± 29 beats per minute”; in series [3] (setting [11]), “+57 ± 31 beats per minute”; in series [3] (setting [12]) it was “+14 ± 12 beats per minute”. The “Mean change in systolic blood pressure from control ± SE” value in series [2] (setting [9]) is recorded as -19 ± 4 mm Hg; in series [3] (setting [10]) it was -10 ± 4 mm Hg; in series [3] (setting [11]) it was -10 ± 2 mm Hg; in series [3] (setting [12]), -19 ± 3 mm Hg.

Turning to `C[C@](N)(Cc1ccc(O)c(O)c1)C(=O)O` [Methyldopa, reference compound], the “Mean change in heart rate from control ± SE” value is listed as “+106 ± 26 beats per minute” in series [3] (setting [13]), “+104 ± 28 beats per minute” in series [3] (setting [14]), “+31 ± 39 beats per minute” in series [3] (setting [15]) and -19 ± 12 beats per minute in series [3] (setting [16]). Further, the “Mean change in systolic blood pressure from control ± SE” value in series [3] (setting [13]) is given as -31 ± 4 mm Hg; in series [3] (setting [14]) it was -50 ±4 mm Hg; in series [3] (setting [15]), -48 ± 6 mm Hg; in series [3] (setting [16]) it was -16 ± 5 mm Hg. In addition, the “change in mean systolic blood pressure from control levels” value in series [3] (in words, hypertensive rats, reference standards) is reported as “significant depressions in mean systolic blood pressure from control levels”.

In turn, `COc1ccc(CC(=O)NCCc2cc3c(cc2C)CCC3)cc1OC` [VII, N-(3,4-Dimethoxyphenylacetyl)-5-aminoethyl-6-methylindan] displayed an LD50 at 24 h in series [1] (suspension in 1% tragacanth) above 1000 mg/kg. Besides, the “Mean change in heart rate from control ± SE” value in series [2] (setting [9]) was “+22 ± 12 beats per minute”; in series [3] (setting [10]), “+43 ± 10 beats per minute”; in series [3] (setting [11]) it was “+47 ± 12 beats per minute”; in series [3] (setting [12]), “+37 ± 15 beats per minute”. Further, the “Mean change in systolic blood pressure from control ± SE” value in series [2] (setting [9]) is reported as -3 ± 7 mm Hg; in series [3] (setting [10]), -2 ± 6 mm Hg; in series [3] (setting [11]) it was -4 ± 9 mm Hg; in series [3] (setting [12]) it was “+2 ± 5 mm Hg”.

`COc1ccc(CNCCc2cc3c(cc2C)CCC3)cc1OC.Cl` [VIII, N-(3,4-Dimethoxybenzyl)-5-aminoethyl-6-methylindan hydrochloride] showed a median lethal dose (LD50) at 24 h in series [1] (suspension in 1% tragacanth) of 140 to 178 mg/kg. The “Mean change in heart rate from control ± SE” value was -14 ± 10 beats per minute in series [2] (setting [9]), -55 ± 17 beats per minute in series [3] (setting [10]), 0 ± 14 beats per minute in series [3] (setting [11]) and “+4 ± 8 beats per minute” in series [3] (setting [12]). Moreover, the “Mean change in systolic blood pressure from control ± SE” value is on record as -17 ± 2 mm Hg in series [2] (setting [9]), -58 ± 4 mm Hg in series [3] (setting [10]), -60 ± 7 mm Hg in series [3] (setting [11]) and -47 ± 2 mm Hg in series [3] (setting [12]).

In series [1] (suspension in 1% tragacanth), `Cc1cc2c(cc1CCNC(=O)Cc1ccccc1)CCC2` [VI] displayed an LD50 at 24 h above 1000 mg/kg. For the same molecule, the “Mean change in heart rate from control ± SE” value in series [2] (setting [9]) is on record as “+2 ± 17 beats per minute”; in series [3] (setting [10]), “+17 ± 17 beats per minute”; in series [3] (setting [11]), “+24 ± 11 beats per minute”; in series [3] (setting [12]) it was “+23 ± 13 beats per minute”. Further, the “Mean change in systolic blood pressure from control ± SE” value in series [2] (setting [9]) is recorded as -3 ± 10 mm Hg; in series [3] (setting [10]), -7 ± 7 mm Hg; in series [3] (setting [11]) it was -2 ± 6 mm Hg; in series [3] (setting [12]) it was -1 ± 7 mm Hg.
